According to publication PMC4504005, “Structural Basis for Receptor Activity-Modifying Protein-Dependent Selective Peptide Recognition by a G Protein-Coupled Receptor” (Molecular cell, 2015):
Where two headings read alike, the source gives them in different places. Ends that are not written are not given here.

Columns and labels:
[1] = molecular target: T1, MBP-RAMP2 ECD [L106R]-(GSA)3-CLR ECD-H6 (Homo sapiens, UniProt O60895+Q16602, L106R); assay: Competition AlphaScreen, AM1 receptor ECD complex [L106R]; format: binding; details: for binding of swap peptide: competition AlphaScreen, Figures 6H-6J
T1 construct: MBP-hRAMP2.55-140 [L106R]-(Gly-; Ser-Ala)3-hCLR.29-144-H6 proteins; made in house; host or cells: E. coli (co-expressed with DsbC)
Description: (§1) Plasmid construction, mutagenesis, protein expression, purification, and the AlphaScreen peptide-binding assay were as previously described with minor modifications to the AlphaScreen assay ([Hill and Pioszak, 2013]; [Moad and Pioszak, 2013]). Synthetic peptides were from RS Synthesis, Bachem, or were synthesized in-house. Details are in Supplemental Experimental Procedures.
(§2) Supplemental Experimental Procedures
(§3) Plasmid construction and protein production and characterization. Bacterial pETDuet1 […]
(§4) numbers indicated) fusion proteins co-expressed with DsbC were constructed using the Gibson Assembly cloning method with Gibson Assembly master mix (New England […]
(§5) 2014). Site directed mutagenesis was performed with the QuikChange II kit (Agilent) or using the Gibson Assembly method. Primer sequences are available upon request. All constructs were verified by automated DNA sequencing.
(§6) The tethered ECD fusion proteins were expressed in E. coli, purified, and characterized for peptide binding with an AlphaScreen peptide binding assay as previously described (Moad and Pioszak, 2013), except that the AlphaScreen competition assays also included 0.3% (v/v) Triton X-100 in the reaction buffer. Triton X-100 […]
(§7) reactions in which the donor and acceptor beads were brought together by a Biotin-(Gly)6-(His)6 peptide. The binding experiments were conducted at least three times with each independent experiment performed with duplicate samples. pIC50 values are stated as the mean of the replicate independent experiments ± S.E.M. Although slight variation […]
(§8) Peptides. […]

[2] = molecular target: T2, MBP-RAMP2 ECD-(GS)5-CLR ECD-H6 (WT RAMP2 ECD-CLR ECD fusion) (Homo sapiens, UniProt O60895+Q16602); assay: Competition AlphaScreen, WT RAMP2 ECD-CLR ECD fusion; format: binding; details: text (Fig S1C), approximate
T2 construct: MBP-hRAMP2.55-140-(Gly-Ser-Ala)3-hCLR.29-144-H6; made in house; host or cells: E. coli
Description: as §1, §2, §3
(§9) numbers indicated) fusion proteins co-expressed with DsbC were constructed using the Gibson Assembly cloning method with Gibson Assembly master mix (New England Biolabs). Plasmids for expression of tagged full-length CLR and RAMP1 or -2 receptors in mammalian cells were previously described (Barwell et al., 2010; Watkins et al., 2014). Site directed mutagenesis was performed with the QuikChange II kit (Agilent) or using the Gibson Assembly method. Primer sequences are available upon request. All constructs were verified by automated DNA sequencing.
as §6

[3] = molecular target: T3, MBP-RAMP1 ECD-(GSA)3-CLR ECD-H6 (Homo sapiens, UniProt O60894+Q16602); assay: Competition AlphaScreen, CGRP receptor ECD complex; format: binding; details: for binding of swap peptide: competition AlphaScreen, Figures 6E-6G, 100 nM protein, 100 nM biotin-CGRP
T3 construct: made in house; host or cells: E. coli (co-expressed with DsbC)
Description: as §1, §2, §3, §4, §5, §6, §7, §8

[4] = test system: MBP-hRAMP1.24-111-(Gly-Ser-Ala)3-hCLR.29-144-H6; assay: Apparent aggregation in AlphaScreen competition assay, RAMP1-(GSA)3-CLR protein; format: physicochemical, human; details: reaction buffer with 0.3% (v/v) Triton X-100, which minimized but did not completely prevent it; data not shown
Description: as §2, §3, §9, §6
Ser-Ala)3-hCLR.29-144-H6 proteins (data not shown).
CGRP analog prevented it from fully competing the binding signal to background levels […]
receptor crystallization construct are likely a bit higher than the true values. Competitor

[5] = Figure 6I, 100 nM protein, 100 nM biotin-AM, 0.3% Triton X-100, mean ± SEM, at least three independent experiments in duplicate, read-out: pIC50 (converted)
[6] = 100 nM protein, 100 nM biotin-AM

`CC[C@H](C)[C@H](NC(=O)[C@H](CCC(N)=O)NC(=O)[C@H](Cc1c[nH]cn1)NC(=O)[C@H](C)NC(=O)[C@H](CC(C)C)NC(=O)[C@H](CCCCN)NC(=O)[C@H](CCC(N)=O)NC(=O)[C@@H](NC(=O)[C@@H](N)[C@@H](C)O)C(C)C)C(=O)N[C@@H](Cc1ccc(O)cc1)C(=O)N[C@@H](CCC(N)=O)C(=O)N[C@@H](Cc1ccccc1)C(=O)N[C@H](C(=O)N[C@@H](CC(=O)O)C(=O)N[C@@H](CCCCN)C(=O)N[C@@H](CC(=O)O)C(=O)N[C@@H](CCCCN)C(=O)N[C@@H](CC(=O)O)C(=O)N[C@@H](CC(N)=O)C(=O)N[C@H](C(=O)N[C@@H](C)C(=O)N1CCC[C@H]1C(=O)N[C@@H](CCCNC(=N)N)C(=O)N[C@@H](CO)C(=O)N[C@@H](CCCCN)C(=O)N[C@H](C(=O)N[C@@H](CO)C(=O)N1CCC[C@H]1C(=O)N[C@@H](CCC(N)=O)C(=O)NCC(=O)N[C@@H](Cc1ccc(O)cc1)C(N)=O)[C@@H](C)CC)C(C)C)[C@@H](C)O` [AM(22-52)NH2] gave an IC50 ([1]; AlphaScreen competition, text (Figs S1C, S1H), approximate, read-out: IC50) of 5 to 15 µM, an IC50 ([1]; Figure 6H, 100 nM protein, 100 nM biotin-AM, 0.3% Triton X-100, mean ± SEM, at least three independent experiments in duplicate, read-out: pIC50 (converted)) of 12 µM and an IC50 [1, 5] of 14.5 µM. It also gave an IC50 [2] of 5 to 15 µM.

For `CC(C)[C@H](NC(=O)[C@H](CC(=O)O)NC(=O)[C@@H](NC(=O)[C@@H]1CCCN1C(=O)[C@@H](NC(=O)[C@@H](N)Cc1ccccc1)C(C)C)[C@@H](C)O)C(=O)NCC(=O)N1CCC[C@H]1C(=O)N[C@@H](Cc1ccccc1)C(=O)N[C@@H](C)C(=O)N[C@@H](Cc1ccccc1)C(N)=O` [CGRPmut], the IC50 [3] was 0.457 µM and the apparent aggregation [4] was “apparent aggregation”.

With “AM(37–52)NH2 [Y52F]: C-terminal residue swap of minimal ECD complex-binding AM peptide” the “binding of swap peptide” value [3] was “did not gain increased affinity for the CGRP receptor ECD complex” and the “binding of swap peptide” value [1, 6] was “exhibited significantly diminished binding to the AM1 receptor ECD complex”.

Compound DKDNVAPRSKISPQGY-NH2 [AM(37–52)] has an IC50 ([1]; Figure 6J, 100 nM protein, 100 nM biotin-AM, 0.3% Triton X-100, mean ± SEM, at least three independent experiments in duplicate, read-out: pIC50 (converted)) of 10 µM.

FVPTDVGPFAY-NH2 [CGRPmut [F37Y]] was tested, and the “binding of swap peptide” value [3] was “retained CGRP receptor ECD complex binding”, the IC50 [1, 5] was 16.2 µM and the “binding of swap peptide” value [1, 6] was “gained the ability to bind the AM1 receptor ECD complex as strongly as AM”.
